Measurements taken from US10933051B2, “Carbapenem compounds and compositions for the treatment of bacterial infections” (FOB Synthesis, Inc., priority 2017, dated 2021).

Experiments:
Test in all cases: Antimicrobial Susceptibility Test (CLSI), Test Example 3
Type in all cases: cell-based
Design in all cases: unit not given here
[1] = test system: K. pneumoniae BAA-1904; conditions: Table 6; strain produces KPC-3
Experimental: (§1) Antimicrobial Susceptibility Test was performed by the CLSI (Clinical and Laboratory Standards Institute) methods. The agar dilution method for determining antimicrobial susceptibility was carried out using Mueller Hinton-II agar and the amount of inoculation was 10^4CFU/spot. Broth dilution tests were performed using the Mueller Hinton-II broth. All assays were run with the indicated control strains, available from the ATCC (American Type Culture Collection, Rockville, Md.).

[2] = test system: E. coli FSEco-054; conditions: Table 6; strain produces ESBL
Experimental: as §1

[3] = test system: A. baumannii FSAb-029; conditions: Table 6; strain produces OXA-2, IMP-1
Experimental: as §1

[4] = test system: P. aeruginosa FSPa-141; conditions: Table 6; strain produces VIM-2
Experimental: as §1

[5] = test system: A. baumannii FSAb-141; conditions: Table 6; strain produces PER-1, OXA-23, 51, 66
Experimental: as §1

[6] = test system: A. baumannii FSAb-039; conditions: Table 6; strain produces OXA-51
Experimental: as §1

[7] = test system: A. baumannii FSAb-056; conditions: Table 6; strain produces OXA-23, 51
Experimental: as §1

[8] = test system: P. aeruginosa FSPa-102; conditions: Table 6; strain produces IMP-1
Experimental: as §1

Structure (SMILES) | antimicrobial susceptibility, Kp BAA-1904 [1] | antimicrobial susceptibility, Ec FSEco-054 [2] | antimicrobial susceptibility, Ab FSAb-029 [3] | antimicrobial susceptibility, Pa FSPa-141 [4] | antimicrobial susceptibility, Ab FSAb-141 [5] | antimicrobial susceptibility, Ab FSAb-039 [6] | antimicrobial susceptibility, Ab FSAb-056 [7] | antimicrobial susceptibility, Pa FSPa-102 [8]
C[C@@H](O)[C@H]1C(=O)N2C(C(=O)O)=C(CN(CCCCNC(=O)c3ccc(O)c(O)c3F)CCCNC(=O)c3ccc(O)c(O)c3F)[C@H](C)[C@H]12 [Compound 104] | >32 | 1 | 0.5 | 4 | 1 | 2 | 4 | 2
C[C@@H](O)[C@H]1C(=O)N2C(C(=O)O)=C(CN(CCNC(=O)c3ccc(O)c(O)c3Cl)CCNC(=O)c3ccc(O)c(O)c3Cl)[C@H](C)[C@H]12 [Compound 105] | 16 | 1 | 0.5 | 0.5 | 0.5 | 2 | 2 | 1
C[C@@H](O)[C@H]1C(=O)N2C(C(=O)O)=C(CN(CCCNC(=O)c3ccc(O)c(O)c3Cl)CCNC(=O)c3ccc(O)c(O)c3Cl)[C@H](C)[C@H]12 [Compound 106] | >32 | 1 | 0.25 | 1 | 0.5 | 1 | 2 | 1
C[C@@H](O)[C@H]1C(=O)N2C(C(=O)O)=C(CN(CCCNC(=O)c3ccc(O)c(O)c3Cl)CCCNC(=O)c3ccc(O)c(O)c3Cl)[C@H](C)[C@H]12 [Compound 107] | >32 | 0.5 | 0.25 | 1 | 0.5 | 1 | 2 | 1
C[C@@H](O)[C@H]1C(=O)N2C(C(=O)O)=C(CN(CCCCNC(=O)c3ccc(O)c(O)c3Cl)CCCNC(=O)c3ccc(O)c(O)c3Cl)[C@H](C)[C@H]12 [Compound 108] | >32 | 1 | 1 | 2 | 1 | 2 | 4 | 2
C[C@@H](O)[C@H]1C(=O)N2C(C(=O)O)=C(CN(CCCNC(=O)c3ccc(O)c(O)c3)CCNC(=O)c3ccc(O)c(O)c3)[C@H](C)[C@H]12 [Compound 109] | >32 | 2 | 1 | 4 | 2 | 2 | 4 | 4
C[C@@H](O)[C@H]1C(=O)N2C(C(=O)O)=C(CN(CCCNC(=O)c3ccc(O)c(O)c3)CCCNC(=O)c3ccc(O)c(O)c3)[C@H](C)[C@H]12 [Compound 110] | >32 | 4 | 2 | 16 | 4 | 8 | 8 | 8
C[C@@H](O)[C@H]1C(=O)N2C(C(=O)O)=C(CN(CCCCNC(=O)c3ccc(O)c(O)c3)CCCNC(=O)c3ccc(O)c(O)c3)[C@H](C)[C@H]12 [Compound 111] | >32 | 4 | 2 | 16 | 2 | 4 | 8 | 4
C[C@@H](O)[C@H]1C(=O)N2C(C(=O)O)=C(CN(CCCNC(=O)c3cccc(O)c3O)CCNC(=O)c3cccc(O)c3O)[C@H](C)[C@H]12 [Compound 112] | >32 | 8 | 4 | >32 | 4 | 8 | 32 | 16
C[C@@H](O)[C@H]1C(=O)N2C(C(=O)O)=C(CN(CCCCNC(=O)c3cccc(O)c3O)CCCNC(=O)c3cccc(O)c3O)[C@H](C)[C@H]12 [Compound 113] | >32 | >32 | >32 | >32 | >32 | >32 | >32 | >32
C[C@@H](O)[C@H]1C(=O)N2C(C(=O)[O-])=C(C[N+](C)(CCCNC(=O)c3ccc(O)c(O)c3F)CCCNC(=O)c3ccc(O)c(O)c3F)[C@H](C)[C@H]12 [Compound 114] | >32 | 2 | 1 | 4 | 2 | 32 | 8 | 4
C[C@@H](O)[C@H]1C(=O)N2C(C(=O)O)=C(CN(C)CC(=O)N(CCCNC(=O)c3ccc(O)c(O)c3F)CCCNC(=O)c3ccc(O)c(O)c3F)[C@H](C)[C@H]12 [Compound 115] | >32 | 2 | 2 | 4 | 2 | 4 | 8 | 2
C[C@@H](O)[C@H]1C(=O)N2C(C(=O)O)=C(CN(C)CC(=O)N(CCCNC(=O)c3ccc(O)c(O)c3F)CCCNC(=O)c3ccc(O)c(O)c3F)[C@H](C)[C@H]12 [Compound 117] | >32 | 1 | 2 | 8 | 2 | 4 | 4 | 2
C[C@@H](O)[C@H]1C(=O)N2C(C(=O)[O-])=C(CN(C)CC[N+](C)(CCCNC(=O)c3ccc(O)c(O)c3F)CCCNC(=O)c3ccc(O)c(O)c3F)[C@H](C)[C@H]12 [Compound 118] | >32 | 2 | 2 | 8 | 4 | 8 | 8 | 4
